Test [1] has as its target T1, wt human LRRK2, catalytic site (Homo sapiens, UniProt Q5S007).
T1 construct: 5 nM wt human LRRK2, catalytic site; purchased ThermoFisher
Kind of test: TR-FRET LanthaScreen Eu Kinase Binding Assay, LRRK2 wt. The conditions noted are these: one range stated for wt and G2019, read-out: IC50, Activity Toward LRRK2(Wt). The procedure, abridged:
(§1)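 Emission ratios from TR-FRET were analysed per the LanthaScreen binding protocol after 1 h room-temperature incubation of compound, kinase/antibody and Kinase Tracer 236. Final levels were 5 nM LRRK2 with 2 nM Eu-anti-GST and 10 nM tracer, or 8 nM NUAK1 with 2 nM Eu-anti-His and 5 nM tracer.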
A general note: In TR-FRET formats the signal depends on donor and acceptor labels being close together.

The target in test [2] is T2, wt human TYK2, catalytic site (Homo sapiens, UniProt P29597).
T2 construct: wt human TYK2, catalytic site; purchased SignalChem
T2 sequence (P29597 897-1176 limits assumed): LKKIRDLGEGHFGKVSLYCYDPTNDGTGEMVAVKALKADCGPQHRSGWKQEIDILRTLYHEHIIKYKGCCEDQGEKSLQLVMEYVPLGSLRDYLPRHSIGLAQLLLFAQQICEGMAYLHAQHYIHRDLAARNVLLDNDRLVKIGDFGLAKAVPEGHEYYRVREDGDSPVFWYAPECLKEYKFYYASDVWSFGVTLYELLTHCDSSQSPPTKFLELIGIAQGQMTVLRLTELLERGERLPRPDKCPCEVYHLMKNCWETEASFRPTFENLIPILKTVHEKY
Description: HTRF KinEASE assay, TYK2. The class given is biochemical. The conditions noted are these: 1 μM ATP; read-out: IC50, Activity Toward TYK2. In a few lines:
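HTRF KinEASE-TK readout with 1 μM biotinylated TK substrate in 1× kinase buffer, ≥30 min at room temperature, then antibody/streptavidin-XL665 detection for 60 min. TYK2 at 2 nM with 1 μM ATP; JAK2 at 1 nM with 100 μM ATP. Analysis uses emission ratios.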

The target in test [3] is T3, wt human NUAK1, full length (Homo sapiens, UniProt O60285).
T3 construct: 8 nM wt human NUAK1, full length (ThermoFisher/USA); purchased ThermoFisher
T3 sequence (O60285 1-661): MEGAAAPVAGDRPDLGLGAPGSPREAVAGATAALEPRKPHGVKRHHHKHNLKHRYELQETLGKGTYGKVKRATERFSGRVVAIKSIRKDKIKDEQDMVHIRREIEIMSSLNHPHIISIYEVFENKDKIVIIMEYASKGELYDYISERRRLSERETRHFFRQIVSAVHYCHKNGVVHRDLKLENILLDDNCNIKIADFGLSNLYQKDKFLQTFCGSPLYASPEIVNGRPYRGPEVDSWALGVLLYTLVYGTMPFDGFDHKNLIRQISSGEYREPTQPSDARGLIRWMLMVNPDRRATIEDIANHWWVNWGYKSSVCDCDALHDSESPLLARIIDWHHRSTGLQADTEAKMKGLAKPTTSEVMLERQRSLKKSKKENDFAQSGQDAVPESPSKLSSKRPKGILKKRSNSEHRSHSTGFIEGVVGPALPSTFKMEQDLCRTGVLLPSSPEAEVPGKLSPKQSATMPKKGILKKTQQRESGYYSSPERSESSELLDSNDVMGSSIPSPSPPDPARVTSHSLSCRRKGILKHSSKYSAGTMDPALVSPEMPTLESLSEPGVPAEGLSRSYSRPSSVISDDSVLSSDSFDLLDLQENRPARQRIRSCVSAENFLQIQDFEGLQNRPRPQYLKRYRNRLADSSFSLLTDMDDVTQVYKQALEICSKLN
Kind of test: TR-FRET LanthaScreen Eu Kinase Binding Assay, NUAK1. Conditions: read-out: IC50, Activity Toward NUAK1. The procedure, abridged:
as §1

Test [4] addresses T4, wt human JAK1, catalytic site (Homo sapiens, UniProt P23458).
T4 construct: wt human JAK1, catalytic site; purchased ThermoFisher
Description: HTRF KinEASE assay, JAK1. The class given is biochemical. Conditions: 2.5 μM ATP; read-out: IC50, Activity Toward JAK1. In a few lines:
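Two-step HTRF KinEASE assay: compound, kinase/biotinylated TK substrate and ATP were incubated at least 30 min at room temperature. Antibody plus streptavidin-XL665 was then added and plates were read after 60 min. Inhibition was derived from emission ratios according to the kit protocol.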

The target of test [5] is T5, G2019S human LRRK2, catalytic site (Homo sapiens, UniProt Q5S007, G2019S).
T5 construct: G2019S human LRRK2, catalytic site; purchased ThermoFisher
T5 sequence (Q5S007 970-2527 G2019S limits assumed): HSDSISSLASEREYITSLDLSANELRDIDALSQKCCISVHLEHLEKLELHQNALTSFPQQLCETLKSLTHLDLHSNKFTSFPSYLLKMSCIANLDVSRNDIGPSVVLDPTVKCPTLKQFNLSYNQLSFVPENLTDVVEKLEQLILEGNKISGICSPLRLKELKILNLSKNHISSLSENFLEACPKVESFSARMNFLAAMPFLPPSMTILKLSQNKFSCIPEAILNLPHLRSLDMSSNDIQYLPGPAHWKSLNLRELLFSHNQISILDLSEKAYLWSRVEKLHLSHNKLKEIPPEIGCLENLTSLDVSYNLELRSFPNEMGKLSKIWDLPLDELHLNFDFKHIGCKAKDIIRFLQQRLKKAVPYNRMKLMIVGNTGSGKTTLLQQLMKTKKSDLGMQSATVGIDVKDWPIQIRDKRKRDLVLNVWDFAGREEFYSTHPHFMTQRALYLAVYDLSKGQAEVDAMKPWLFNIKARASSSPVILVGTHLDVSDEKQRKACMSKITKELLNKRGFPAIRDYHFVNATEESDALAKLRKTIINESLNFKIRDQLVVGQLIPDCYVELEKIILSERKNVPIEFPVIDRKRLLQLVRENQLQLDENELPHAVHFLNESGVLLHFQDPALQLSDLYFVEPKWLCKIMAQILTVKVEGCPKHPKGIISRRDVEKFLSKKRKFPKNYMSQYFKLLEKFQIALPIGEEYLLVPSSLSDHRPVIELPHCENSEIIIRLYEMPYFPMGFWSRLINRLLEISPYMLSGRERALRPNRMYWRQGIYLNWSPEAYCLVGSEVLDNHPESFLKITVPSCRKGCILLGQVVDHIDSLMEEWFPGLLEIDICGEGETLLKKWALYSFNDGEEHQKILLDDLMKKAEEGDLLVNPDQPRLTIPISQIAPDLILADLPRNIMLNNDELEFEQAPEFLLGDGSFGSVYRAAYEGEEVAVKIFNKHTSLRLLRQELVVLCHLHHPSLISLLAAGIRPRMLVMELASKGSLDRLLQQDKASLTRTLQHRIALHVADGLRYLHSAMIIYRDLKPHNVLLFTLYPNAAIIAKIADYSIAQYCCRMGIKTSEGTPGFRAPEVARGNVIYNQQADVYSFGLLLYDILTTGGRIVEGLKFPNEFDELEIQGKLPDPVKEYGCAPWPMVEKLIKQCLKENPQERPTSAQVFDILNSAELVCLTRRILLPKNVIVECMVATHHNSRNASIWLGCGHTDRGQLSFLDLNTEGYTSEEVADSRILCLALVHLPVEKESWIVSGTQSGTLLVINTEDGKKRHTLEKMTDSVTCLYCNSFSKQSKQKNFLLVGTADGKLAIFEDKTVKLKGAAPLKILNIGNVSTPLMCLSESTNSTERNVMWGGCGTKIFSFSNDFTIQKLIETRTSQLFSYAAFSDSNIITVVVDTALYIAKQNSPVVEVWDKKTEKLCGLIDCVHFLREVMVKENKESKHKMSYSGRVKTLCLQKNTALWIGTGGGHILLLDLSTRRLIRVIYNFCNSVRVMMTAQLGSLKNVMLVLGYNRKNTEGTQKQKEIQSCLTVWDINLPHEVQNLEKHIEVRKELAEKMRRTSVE
Description: TR-FRET LanthaScreen Eu Kinase Binding Assay, LRRK2 G2019S. Conditions: LRRK2(G2019); one range stated for wt and G2019; read-out: IC50, Activity Toward LRRK2(G2019). The procedure, abridged:
as §1

Each structure is given as a SMILES string. Bounds are passed on as bounds.

Drawing on patent US20230373985A1 (Origenis Gmbh, priority 2020, published 2023), this text covers IC50 for 16 molecules.

T4 sequence (P23458 875-1153 limits assumed): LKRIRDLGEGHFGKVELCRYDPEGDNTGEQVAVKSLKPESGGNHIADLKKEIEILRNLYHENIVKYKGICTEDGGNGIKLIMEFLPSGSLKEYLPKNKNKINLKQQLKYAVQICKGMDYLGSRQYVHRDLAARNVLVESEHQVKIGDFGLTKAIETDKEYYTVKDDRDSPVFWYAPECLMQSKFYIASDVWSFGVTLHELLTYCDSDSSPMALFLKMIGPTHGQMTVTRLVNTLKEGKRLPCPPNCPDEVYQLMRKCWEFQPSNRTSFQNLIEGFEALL
T1 sequence (Q5S007 970-2527 limits assumed): as the sequence (Q5S007 970-2527 G2019S limits assumed) above, with S1050G counted along it

What is called IC50 is the concentration needed to halve the response being measured. `CN(C)C1CCN(C(=O)c2ccc(Nc3cn(-c4c(Cl)cccc4Cl)nc3C(N)=O)cc2)C1` (centres unmarked) [compound 248, 1-(2,6-dichlorophenyl)-4-((4-(3-(dimethylamino)pyrrolidine-1-carbonyl)phenyl)amino)-1H-pyrazole-3-carboxamide]: the IC50 in test [1] fell in the range of 100 to 1000 nM; in test [2], 10 to 100 nM; in test [3], 100 to 1000 nM; in test [4] it was 10 to 100 nM; in test [5], 100 to 1000 nM.
For the molecule `NC(=O)c1nn(-c2c(Cl)cccc2Cl)cc1Nc1ccc(C(=O)N2CCC(N3CCCC3)C2)cc1` (centres unmarked) [compound 249, 4-((4-([1,3′-bipyrrolidine]-1′-carbonyl)phenyl)amino)-1-(2,6-dichlorophenyl)-1H-pyrazole-3-carboxamide], the IC50 in test [1] is 100 to 1000 nM; in test [2], less than 10 nM; in test [3], 100 to 1000 nM; in test [4], 100 to 1000 nM; in test [5], 100 to 1000 nM.
Turning to `CCc1nc(C(F)(F)F)nn1-c1ccc(Nc2cn(-c3c(F)cccc3F)nc2C(N)=O)cc1` [compound 284], the IC50 in test [1] fell in the range of 100 to 1000 nM; in test [2], 10 to 100 nM; in test [3] it was 100 to 1000 nM; in test [4] it was 100 to 1000 nM; in test [5], 100 to 1000 nM.
With `Cn1nc(C(F)(F)F)nc1-c1ccc(Nc2cn(-c3c(F)cccc3F)nc2C(N)=O)cc1` [compound 285, 1-(2,6-difluorophenyl)-4-((4-(1-methyl-3-(trifluoromethyl)-1H-1,2,4-triazol-5-yl)phenyl)amino)-1H-pyrazole-3-carboxamide], the half-inhibitory concentration (IC50) was 100 to 1000 nM in test [1]; 10 to 100 nM in test [2]; 100 to 1000 nM in test [3]; 10 to 100 nM in test [4]; 100 to 1000 nM in test [5].
As to `CCc1ccnn1-c1ccc(Nc2cn(-c3c(F)cccc3Cl)nc2C(N)=O)cc1` [compound 286, 1-(2-chloro-6-fluorophenyl)-4-((4-(5-ethyl-1H-pyrazol-1-yl)phenyl)amino)-1H-pyrazole-3-carboxamide], the IC50 in test [1] fell in the range of 100 to 1000 nM; in test [2], 10 to 100 nM; in test [3], 100 to 1000 nM; in test [4] it was 100 to 1000 nM; in test [5], 100 to 1000 nM.
Regarding `CCc1ccnn1-c1ccc(Nc2cn(-c3c(F)cccc3F)nc2C(N)=O)cc1` [compound 287, 1-(2,6-difluorophenyl)-4-((4-(5-ethyl-1H-pyrazol-1-yl)phenyl)amino)-1H-pyrazole-3-carboxamide], the IC50 in test [1] was in the range of 100 to 1000 nM; in test [2] it was 100 to 1000 nM; in test [3], 10 to 100 nM; in test [4], 100 to 1000 nM; in test [5] it was 100 to 1000 nM.
As to `CN1CCC(Oc2ccc(Nc3cn(-c4c(F)cccc4F)nc3C(N)=O)cc2)CC1` [compound 288, 1-(2,6-difluorophenyl)-4-((4-((1-methylpiperidin-4-yl)oxy)phenyl)amino)-1H-pyrazole-3-carboxamide], the IC50 in test [1] was 100 to 1000 nM; in test [2] it was 10 to 100 nM; in test [3], 10 to 100 nM; in test [4], 100 to 1000 nM; in test [5] it was 100 to 1000 nM.
In the case of `CN1CCC(Oc2ccc(Nc3cn(-c4c(F)cccc4Cl)nc3C(N)=O)cc2)CC1` [compound 295, 1-(2-chloro-6-fluorophenyl)-4-((4-((1-methylpiperidin-4-yl)oxy)phenyl)amino)-1H-pyrazole-3-carboxamide], the IC50 lay within 100 to 1000 nM in test [1]; 10 to 100 nM in test [2]; 10 to 100 nM in test [3]; 10 to 100 nM in test [4]; 100 to 1000 nM in test [5].
For `Cc1ccnnc1-c1ccc(Nc2cn(-c3c(F)cccc3F)nc2C(N)=O)cc1` [compound 296, 1-(2,6-difluorophenyl)-4-((4-(4-methylpyridazin-3-yl)phenyl)amino)-1H-pyrazole-3-carboxamide], the IC50 in test [1] was 100 to 1000 nM; in test [2], 10 to 100 nM; in test [3], 100 to 1000 nM; in test [4], 100 to 1000 nM; in test [5], 100 to 1000 nM.
On to `Cn1cc(C(F)(F)F)nc1-c1ccc(Nc2cn(-c3c(F)cccc3F)nc2C(N)=O)cc1` [compound 308, 1-(2,6-difluorophenyl)-4-((4-(1-methyl-4-(trifluoromethyl)-1H-imidazol-2-yl)phenyl)amino)-1H-pyrazole-3-carboxamide], for which the IC50 lay within 100 to 1000 nM in test [1]; 10 to 100 nM in test [2]; 100 to 1000 nM in test [3]; 10 to 100 nM in test [4]; 100 to 1000 nM in test [5].
Turning to `CC(C)n1ncnc1-c1ccc(Nc2cn(-c3c(F)cccc3F)nc2C(N)=O)cc1` [compound 309, 1-(2,6-difluorophenyl)-4-((4-(1-isopropyl-1H-1,2,4-triazol-5-yl)phenyl)amino)-1H-pyrazole-3-carboxamide], the IC50 in test [1] was 10 to 100 nM; in test [2], 100 to 1000 nM; in test [3], 100 to 1000 nM; in test [4], 100 to 1000 nM; in test [5], 10 to 100 nM.
`CN(C)[C@@H]1CCN(C(=O)c2ccc(Nc3cn(-c4c(Cl)cccc4Cl)nc3C(N)=O)cc2)C1` [compound 313, (R)-1-(2,6-dichlorophenyl)-4-((4-(3-(dimethylamino)pyrrolidine-1-carbonyl)phenyl)amino)-1H-pyrazole-3-carboxamide]: the IC50 was 100 to 1000 nM in test [1]; 10 to 100 nM in test [2]; 100 to 1000 nM in test [3]; 10 to 100 nM in test [4]; 100 to 1000 nM in test [5].
On to `NC(=O)c1nn(-c2c(Cl)cccc2Cl)cc1Nc1ccc(C(=O)N2CCC(N)C2)cc1` (centres unmarked) [compound 317, 4-((4-(3-aminopyrrolidine-1-carbonyl)phenyl)amino)-1-(2,6-dichlorophenyl)-1H-pyrazole-3-carboxamide], for which the IC50 lay within 100 to 1000 nM in test [1]; 10 to 100 nM in test [2]; 100 to 1000 nM in test [3]; 10 to 100 nM in test [4]; 100 to 1000 nM in test [5].
Consider `NC(=O)c1nn(-c2c(Cl)cccc2Cl)cc1Nc1ccc(C(=O)N2CC[C@@H](N)C2)cc1` [compound 318, (R)-4-((4-(3-aminopyrrolidine-1-carbonyl)phenyl)amino)-1-(2,6-dichlorophenyl)-1H-pyrazole-3-carboxamide], for which the IC50 in test [1] was 100 to 1000 nM; in test [2], 10 to 100 nM; in test [3], 100 to 1000 nM; in test [4], 10 to 100 nM; in test [5], 100 to 1000 nM.
Take `CC(C)(C)OC(=O)NC1CCN(C(=O)c2ccc(Nc3cn(-c4c(Cl)cccc4Cl)nc3C(N)=O)cc2)C1` (centres unmarked) [compound 323, tert-butyl_(1-(4-((3-carbamoyl-1-(2,6-dichlorophenyl)-1H-pyrazol-4-yl)amino)benzoyl)pyrrolidin-3-yl)carbamate]: the IC50 in test [1] lay within 100 to 1000 nM; in test [2], 10 to 100 nM; in test [3], 100 to 1000 nM; in test [4] it was 100 to 1000 nM; in test [5], 100 to 1000 nM.
In the case of `NC(=O)c1nn(-c2c(Cl)cccc2Cl)cc1Nc1ccc(C(=O)N2CC[C@@H](N3CCCC3)C2)cc1` [compound 331, (R)-4-((4-([1,3′-bipyrrolidine]-1′-carbonyl)phenyl)amino)-1-(2,6-dichlorophenyl)-1H-pyrazole-3-carboxamide], the IC50 in test [1] fell in the range of 100 to 1000 nM; in test [2], 10 to 100 nM; in test [3], 100 to 1000 nM; in test [4], 100 to 1000 nM; in test [5], 100 to 1000 nM.
